Test results: patent US20250340510A1, “Substituted Phenylbenzenesulfonamide Derivatives and Uses Thereof” (Nine Square Therapeutics Corporation, priority 2022, published 2025)
pEC50: −log10 of the molar value.

How the values were obtained:
[1] = target: TRPML1 (Homo sapiens, UniProt Q9GZU1); experiment: Calcium flux in HEK293 overexpressing TRPML1 plasma membrane variant (FLIPR, Calcium 6 dye); assay type: cell-based; conditions: HEK293/TRPML1-PM clone A5 cells; 4-parameter logistic fit; read-out: TRPML1 calcium flux (FLIPR) dose response: EC50
In short: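 HEK293 clone expressing plasma-membrane-targeted TRPML1 (N- and C-terminal dileucine motifs deleted), loaded with Calcium 6 dye for 2 h at 37 °C in HBSS/20 mM HEPES pH 7.4. Fluorescence recorded 10 s baseline then 170 s after compound addition. Max-minus-min response over baseline fitted by 4-parameter logistic for EC50.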

[2] = tested on: TFEB; experiment: TFEB translocation assay in HeLa cells (nuclear to cytoplasmic TFEB ratio, high-content imaging); assay type: cell-based; conditions: Homo sapiens, HeLa, 1.5 h, 90 mins incubation at 37° C., ratio of nuclear to cytoplasmic TFEB
Protocol: Example B2. TFEB Translocation Assay
Rabbit TFEB antibody, Cell Signaling Technology #4240S
PFA 16% MeOH-free, Election Microscopy Sciences #50-980-487
HCS CellMask Deep Red, ThermoFisher Scientific #H32721
Plates: Perkin Elmer Phenoplate #605730 black optically clear, tissue culture treated 384-well plate
Example B2.2 Method, Day 1: Cells Seeded in 384WP
Cells were seeded in the afternoon. The outer one row of the plate was not used to avoid outer well edge effects.
HeLa cells were detached using trypsin, and the cells were counted using a cell counter.
4000 HeLa cells were seeded per well in […] growth media (DMEM with 10% FBS, 1 mM sodium pyruvate and Pen-Strep).
Example B2.3 Method, Day 2: Assay with TRPML1 Compounds+Staining
Compounds were added to cells using a Tecan D300e dispenser.
Cells were incubated for 90 mins at 37° C. with the compounds (compound range: 80 nM-[…] (2× step dilution—8 dilution steps, 3 replicates per condition)
The cells were fixed by adding 16.5 μL of 16% PFA (4% final) and incubating for 15 min at room temperature.
The cells were washed with 3× in PBS-TX (PBS+0.1% Triton X-100)−1×100 μL followed by 2×50 μL.
The cells were blocked and permeabilized in 30 μL of blocking buffer (PBS-TX+5% goat serum) for 1 h.
The cells were incubated with TFEB antibody (1:200, CST 4240S) in 30 μL blocking buffer overnight at 4° C. The plates were kept damp to avoid evaporation.
Example B2.4 Method, Day 3: Staining+Imaging
The cells were washed 3× in PBS-TX—3×100 μL with a Biotek EL406 washer.
The cells were incubated with Goat anti-Rb Alexa-Fluor 488 (1:2000), cell mask (1:10,000) and Hoechst (1:10,000) in 30 μL blocking buffer for 1 h at room temperature. The solution was dispensed using a 5 μL peristaltic cassette (EL406).
The cells were washed 3× in PBS-TX—3×100 μL with a EL406 washer, then […] PBS was dispensed using a 5 μL peristaltic cassette (EL406).
The cells were imaged on an Operetta CLS High-content imaging system using a 20× water immersion objective (NA 1.0) the same day.
Image analysis was performed using Harmony V4.9 (Perkin Elmer). Briefly, nuclei were segmented from background-corrected images using Hoechst intensity, and cell body segmented using HCS CellMask DeepRed. A sliding parabola filter was applied to the AlexaFluor 488 channel (TFEB), before sum pixel intensity in the nuclear and cytoplasmic regions was calculated. A ratio of nuclear to cytoplasmic TFEB was used to define TFEB translocation from the cytosolic to nuclear compartment. The EC50 values derived by fitting the data to a sigmoidal dose response curve using Prism 9 (Graphpad).

Sequence of TRPML1 (Q9GZU1 17-572 limits assumed): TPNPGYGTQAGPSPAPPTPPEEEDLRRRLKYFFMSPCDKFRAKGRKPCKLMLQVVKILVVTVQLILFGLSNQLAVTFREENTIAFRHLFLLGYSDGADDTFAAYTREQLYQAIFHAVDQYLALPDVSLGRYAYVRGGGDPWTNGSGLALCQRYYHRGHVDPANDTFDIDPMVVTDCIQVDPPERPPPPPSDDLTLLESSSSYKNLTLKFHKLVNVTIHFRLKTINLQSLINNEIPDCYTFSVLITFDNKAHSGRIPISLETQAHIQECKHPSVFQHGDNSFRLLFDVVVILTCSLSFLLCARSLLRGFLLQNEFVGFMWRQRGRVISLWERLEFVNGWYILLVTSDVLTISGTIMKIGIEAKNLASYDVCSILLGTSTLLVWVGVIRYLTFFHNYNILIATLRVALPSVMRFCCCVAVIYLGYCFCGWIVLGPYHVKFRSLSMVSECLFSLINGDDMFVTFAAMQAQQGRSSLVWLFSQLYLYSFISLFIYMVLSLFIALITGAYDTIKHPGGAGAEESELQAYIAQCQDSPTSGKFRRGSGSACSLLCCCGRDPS

Structure (SMILES) | pEC50 [1] | pEC50 [2]
CN(CC1CCC1)c1ccccc1NS(=O)(=O)c1ccc(S(=O)(=O)N(C)C)cc1 [Compound 106, N1-(2-((cyclobutylmethyl)(methyl)amino)phenyl)-N4,N4-dimethylbenzene-1,4-disulfonamide] | 6.43 | 6.33
CC(C)CN(C)c1c(Cl)cccc1NS(=O)(=O)c1ccc(S(=O)(=O)N(C)C)cc1 [Compound 76, N1-(3-chloro-2-(isobutyl(methyl)amino)phenyl)-N4,N4-dimethylbenzene-1,4-disulfonamide] | 6.28 | 6.48
CN(c1ccccc1NS(=O)(=O)c1ccc(S(=O)(=O)N(C)C)cc1)C1CCC(F)(F)C1 (stereo not drawn) [Compound 99, N1-(2-((3,3-difluorocyclopentyl) (methyl)amino)phenyl)-N4,N4-dimethylbenzene-1,4-disulfonamide] | 6.36 | 6.24
CN(CC1CCC1)c1c(Cl)cccc1NS(=O)(=O)c1ccc(S(=O)(=O)N(C)C)cc1 [Compound 69, N1-(3-chloro-2-((cyclobutylmethyl)(methyl)amino)phenyl)-N4,N4-dimethylbenzene-1,4-disulfonamide] | 6.38 | 6.47

Compounds with a higher pEC50 [1], results first:

pEC50 [1] | pEC50 [2] | Structure (SMILES)
6.44 | 5.93 | CN(C)S(=O)(=O)c1ccc(S(=O)(=O)Nc2ccccc2N(C)[C@H]2CC[C@@H](C)CC2)cc1 [Compound 30, N1,N1-dimethyl-N4-(2-(methyl((1s,4s)-4-methylcyclohexyl)amino)phenyl)benzene-1,4-disulfonamide]
6.54 | 5.31 | CC(C)CCN(C)c1ccccc1NS(=O)(=O)c1ccc(S(=O)(=O)N(C)C)cc1 [Compound 6, N1-(2-(isopentyl(methyl)amino)phenyl)-N4,N4-dimethylbenzene-1,4-disulfonamide]
